Assay results published in patent US20230381321A1, “CAMPTOTHECIN CONJUGATES” (priority 2022, published 2023).

Legend:
Format in all cases: cell-based
[1] = test system: renal carcinoma cells (786-O); assay: In vitro potency (CellTiter-Glo, 96 h) on 786-O; conditions: Homo sapiens, 786-0, 96 h, CPT free drugs; CellTiter-Glo after 96 h exposure; read-out: 786-O IC50
Outline: (§1)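 Luminescent viability signal reports growth inhibition after continuous exposure of cells to serially diluted […]. Cells, grown in RPMI 1640 plus 20% FBS, had been plated in log phase one day before dosing.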

[2] = test system: melanoma cells (A2058); assay: In vitro potency (CellTiter-Glo, 96 h) on A2058; conditions: Homo sapiens, A2058, 96 h, CPT free drugs; CellTiter-Glo after 96 h exposure; read-out: A2058 IC50
Outline: as §1

[3] = test system: pancreatic cancer cells (BxPC3); assay: In vitro potency (CellTiter-Glo, 96 h) on BxPC3; conditions: Homo sapiens, BXPC-3, 96 h, CPT free drugs; CellTiter-Glo after 96 h exposure; read-out: BxPC3 IC50
Outline: as §1

[4] = test system: non-small-cell lung cancer cells (Calu1); assay: In vitro potency (CellTiter-Glo, 96 h) on Calu1; conditions: Homo sapiens, Calu-1, 96 h, CPT free drugs; CellTiter-Glo after 96 h exposure; read-out: Calu1 IC50
Outline: as §1

[5] = test system: anaplastic large cell lymphoma cells (DEL); assay: In vitro potency (CellTiter-Glo, 96 h) on DEL; conditions: 96 h, CPT free drugs; CellTiter-Glo after 96 h exposure; read-out: DEL IC50
Outline: as §1

[6] = test system: anaplastic large cell lymphoma cells (DELBVR); assay: In vitro potency (CellTiter-Glo, 96 h) on DELBVR; conditions: 96 h, CPT free drugs; CellTiter-Glo after 96 h exposure; read-out: DELBVR IC50
Outline: as §1

[7] = test system: anaplastic large cell lymphoma cells (Karpas299); assay: In vitro potency (CellTiter-Glo, 96 h) on Karpas299; conditions: Homo sapiens, KARPAS-299, 96 h, CPT free drugs; CellTiter-Glo after 96 h exposure; read-out: Karpas299 IC50
Outline: as §1

[8] = test system: Hodgkin's lymphoma cells (L540cy); assay: In vitro potency (CellTiter-Glo, 96 h) on L540cy; conditions: L540cy, 96 h, CPT free drugs; CellTiter-Glo after 96 h exposure; read-out: L540cy IC50
Outline: as §1

[9] = In vitro potency (CellTiter-Glo, 96 h) on Ls174T; conditions: Homo sapiens, LS174T; CPT free drugs; CellTiter-Glo after 96 h exposure; read-out: Ls174T IC50
Outline: as §1

[10] = test system: breast cancer cells (MDA-MB-231); assay: In vitro potency (CellTiter-Glo, 96 h) on MDA-MB-231; conditions: Homo sapiens, MDA-MB-231, 96 h, CPT free drugs; CellTiter-Glo after 96 h exposure; read-out: MDAMB 231 IC50
Outline: as §1

[11] = test system: acute myeloid leukemia cells (MOLM-13); assay: In vitro potency (CellTiter-Glo, 96 h) on MOLM-13; conditions: Homo sapiens, MOLM-13, 96 h, CPT free drugs; CellTiter-Glo after 96 h exposure; read-out: MOLM-13 IC50
Outline: as §1

[12] = test system: B-lymphocyte cancer cells (SU-DHL4); assay: In vitro potency (CellTiter-Glo, 96 h) on SU-DHL4; conditions: Homo sapiens, SU-DHL-4, 96 h, CPT free drugs; CellTiter-Glo after 96 h exposure; read-out: SU-DHL-4 IC50
Outline: as §1

Row | SMILES | IC50 [1] [nM] | IC50 [2] [nM] | IC50 [3] [nM] | IC50 [4] [nM] | IC50 [5] [nM] | IC50 [6] [nM] | IC50 [7] [nM] | IC50 [8] [nM] | IC50 [9] [nM] | IC50 [10] [nM] | IC50 [11] [nM] | IC50 [12] [nM]
1 | C/C=C(\C)c1c(C)c(F)cc2nc3c(c(CN)c12)Cn1c-3cc2c(c1=O)COC(=O)[C@]2(O)CC [Compound 6a] | 6 | 5 | 8 | 21 | 2 | 3 | 5 | 4 | 12 | 7 | 4 | 2
2 | CC[C@@]1(O)C(=O)OCc2c1cc1n(c2=O)Cc2c-1nc1cc(F)c(C)c(C3=CCCCC3)c1c2CN [Compound 6b] | 23 | 15 | 18 | 32 | 5 | 5 | 14 | 13 | 85 | 35 | 9 | 9
3 | CC[C@@]1(O)C(=O)OCc2c1cc1n(c2=O)Cc2c-1nc1cc(F)c(C)c(C3=CCCC3)c1c2CN [Compound 6c] | 4 | 5 | 5 | 15 | 1 | 2 | 3 | 3 | 18 | 7 | 4 | 2
4 | CC[C@@]1(O)C(=O)OCc2c1cc1n(c2=O)Cc2c-1nc1cc(F)c(C)c(-c3ccc(O)cc3)c1c2CN [Compound 6f] | 97 | 17 | 46 | 294 | 9 | 8 | 59 | 23 | > 1000 | 139 | 51 | 19
5 | CC[C@@]1(O)C(=O)OCc2c1cc1n(c2=O)Cc2c-1nc1cc(F)c(C)c(-c3ccsc3)c1c2CN [Compound 6g] | 6 | 4 | 7 | 25 | 1 | 1 | 4 | 4 | 14 | 12 | 6 | 2
6 | CC[C@@]1(O)C(=O)OCc2c1cc1n(c2=O)Cc2c-1nc1cc(F)c(C)c(C3=CCOCC3)c1c2CN [Compound 6h] | 36 | 20 | 100 | 155 | 6 | 7 | 28 | 19 | 48 | 102 | 31 | 14
7 | CC[C@@]1(O)C(=O)OCc2c1cc1n(c2=O)Cc2c-1nc1cc(F)c(C)c(-c3cccc(O)c3)c1c2CN [Compound 6i] | 5 | 2 | 10 | 26 | 1 | 1 | 4 | 3 | 10 | 11 | 2 | 2
8 | CC[C@@]1(O)C(=O)OCc2c1cc1n(c2=O)Cc2c-1nc1cc(F)c(C)c(-c3ccccc3)c1c2CN [Compound 6j] | 12 | 10 | 30 | 36 | 4 | 5 | 9 | 9 | 12 | 103 | 15 | 14
